Results reported in ChEMBL document CHEMBL1201862, “PubChem BioAssay data set” (2004).
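Step 1: Grow cells in 96-well plates. Step 2: Expose to compound for 48 hours at 5 concentrations. Step 3: Interpolate endpoints linearly; if unreached, use highest concentration. GI50 marks 50% less growth.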 Calls of active or inactive are those of the source. Cut-off read from the data, not from the text of the source: active = GI50 up to about 1.1 µM and inactive = higher.

How the values were obtained:
Test in all cases: inhibition of tumour cell growth, NCI panel, 48 h
TK-10 = test system: TK-10
DU-145 = test system: DU-145
MCF7 = test system: MCF7
HOP-62 = test system: HOP-62
OVCAR-5 = test system: OVCAR-5
HCT-15 = test system: HCT-15
CAKI-1 = test system: CAKI-1
PC-3 = test system: PC-3
ACHN = test system: ACHN
MOLT-4 = test system: MOLT-4
HT-29 = test system: HT-29
OVCAR-8 = test system: OVCAR-8
SF-539 = test system: SF-539
SR = test system: SR
RPMI-8226 = test system: RPMI-8226
UO-31 = test system: UO-31
EKVX = test system: EKVX
SNB-75 = test system: SNB-75
SW-620 = test system: SW-620
OVCAR-4 = test system: OVCAR-4
BT-549 = test system: BT-549
NCI/ADR-RES = test system: NCI/ADR-RES
SK-MEL-2 = test system: SK-MEL-2
K562 = test system: K562
OVCAR-3 = test system: OVCAR-3
NCI-H23 = test system: NCI-H23
IGROV-1 = test system: IGROV-1
UACC-257 = test system: UACC-257
MDA-MB-231 = test system: MDA-MB-231
LOX IMVI = test system: LOX IMVI
Malme-3M = test system: Malme-3M
NCI-H460 = test system: NCI-H460
UACC-62 = test system: UACC-62
SK-MEL-5 = test system: SK-MEL-5
T47D = test system: T47D
RXF 393 = test system: RXF 393
M14 = test system: M14
A549 = test system: A549
HOP-92 = test system: HOP-92
KM12 = test system: KM12
NCI-H226 = test system: NCI-H226
SF-295 = test system: SF-295
U-251 = test system: U-251
SK-OV-3 = test system: SK-OV-3
MDA-MB-435 = test system: MDA-MB-435
COLO 205 = test system: COLO 205
HL-60 = test system: HL-60
SF-268 = test system: SF-268
CCRF-CEM = test system: CCRF-CEM
MDA-N = test system: MDA-N
786-0 = test system: 786-0
HCT-116 = test system: HCT-116
NCI-H522 = test system: NCI-H522
SN12C = test system: SN12C

SMILES: Cc1c(N2C(=O)/C(=C/c3ccc(Cl)cc3)N=C2c2ccccc2)c(=O)n(-c2ccccc2)n1C
- GI50 (TK-10): 20.5 µM (inactive)
- GI50 (DU-145): 38.2 µM (inactive)
- GI50 (MCF7): 29 µM (inactive)
- GI50 (HOP-62): 81.5 µM (inactive)
- GI50 (OVCAR-5): 49.2 µM (inactive)
- GI50 (HCT-15): 3.2 µM
- GI50 (CAKI-1): 34.6 µM (inactive)
- GI50 (PC-3): 33.9 µM (inactive)
- GI50 (ACHN): 24.8 µM (inactive)
- GI50 (MOLT-4): 21.2 µM (inactive)
- GI50 (HT-29): 26.6 µM (inactive)
- GI50 (OVCAR-8): 43.7 µM (inactive)
- GI50 (SF-539): 28.5 µM (inactive)
- GI50 (SR): 30.5 µM (inactive)
- GI50 (RPMI-8226): 17.8 µM (inactive)
- GI50 (UO-31): 26.2 µM (inactive)
- GI50 (EKVX): 19.7 µM (inactive)
- GI50 (SNB-75): 22.5 µM (inactive)
- GI50 (SW-620): 31.9 µM (inactive)
- GI50 (OVCAR-4): 33.9 µM (inactive)
- GI50 (BT-549): 47.4 µM (inactive)
- GI50 (NCI/ADR-RES): 44.5 µM (inactive)
- GI50 (SK-MEL-2): 16.7 µM (inactive)
- GI50 (K562): 36.6 µM (inactive)
- GI50 (OVCAR-3): 27.1 µM (inactive)
- GI50 (NCI-H23): 26.2 µM (inactive)
- GI50 (IGROV-1): 29 µM (inactive)
- GI50 (UACC-257): 18.3 µM (inactive)
- GI50 (MDA-MB-231): 33.8 µM (inactive)
- GI50 (LOX IMVI): 16.7 µM (inactive)
- GI50 (Malme-3M): 31.5 µM (inactive)
- GI50 (NCI-H460): 31 µM (inactive)
- GI50 (UACC-62): 21.1 µM (inactive)
- GI50 (SK-MEL-5): 17.8 µM (inactive)
- GI50 (T47D): 29.6 µM (inactive)
- GI50 (RXF 393): 22.3 µM (inactive)
- GI50 (M14): 36.8 µM (inactive)
- GI50 (A549): 28.8 µM (inactive)
- GI50 (HOP-92): 18.7 µM (inactive)
- GI50 (KM12): 26.5 µM (inactive)
- GI50 (NCI-H226): 30.7 µM (inactive)
- GI50 (SF-295): 35.7 µM (inactive)
- GI50 (U-251): 28.2 µM (inactive)
- GI50 (SK-OV-3): 36.5 µM (inactive)
- GI50 (MDA-MB-435): 19.5 µM (inactive)
- GI50 (COLO 205): 16 µM (inactive)
- GI50 (HL-60): 27.4 µM (inactive)
- GI50 (SF-268): 30.8 µM (inactive)
- GI50 (CCRF-CEM): 28.3 µM (inactive)
- GI50 (MDA-N): 24.8 µM (inactive)
- GI50 (786-0): 46.8 µM (inactive)
- GI50 (HCT-116): 32.3 µM (inactive)
- GI50 (NCI-H522): 19.8 µM (inactive)
- GI50 (SN12C): 34.1 µM (inactive)
